As a reminder, the Ki is a measure of affinity in units of concentration, obtained from inhibition or displacement.

The structures appear in SMILES notation.

Test [1] concerns the target T1, human MR (Homo sapiens, UniProt P08235).
T1 construct: The full length human MR gene is cloned from a human kidney or human brain cDNA library; His tag from the pAcHLT vector (own knowledge); made in house; host or cells: Sf9 insect cells (baculovirus, pAcHLT transfer vector)
T1 sequence (P08235 1-984): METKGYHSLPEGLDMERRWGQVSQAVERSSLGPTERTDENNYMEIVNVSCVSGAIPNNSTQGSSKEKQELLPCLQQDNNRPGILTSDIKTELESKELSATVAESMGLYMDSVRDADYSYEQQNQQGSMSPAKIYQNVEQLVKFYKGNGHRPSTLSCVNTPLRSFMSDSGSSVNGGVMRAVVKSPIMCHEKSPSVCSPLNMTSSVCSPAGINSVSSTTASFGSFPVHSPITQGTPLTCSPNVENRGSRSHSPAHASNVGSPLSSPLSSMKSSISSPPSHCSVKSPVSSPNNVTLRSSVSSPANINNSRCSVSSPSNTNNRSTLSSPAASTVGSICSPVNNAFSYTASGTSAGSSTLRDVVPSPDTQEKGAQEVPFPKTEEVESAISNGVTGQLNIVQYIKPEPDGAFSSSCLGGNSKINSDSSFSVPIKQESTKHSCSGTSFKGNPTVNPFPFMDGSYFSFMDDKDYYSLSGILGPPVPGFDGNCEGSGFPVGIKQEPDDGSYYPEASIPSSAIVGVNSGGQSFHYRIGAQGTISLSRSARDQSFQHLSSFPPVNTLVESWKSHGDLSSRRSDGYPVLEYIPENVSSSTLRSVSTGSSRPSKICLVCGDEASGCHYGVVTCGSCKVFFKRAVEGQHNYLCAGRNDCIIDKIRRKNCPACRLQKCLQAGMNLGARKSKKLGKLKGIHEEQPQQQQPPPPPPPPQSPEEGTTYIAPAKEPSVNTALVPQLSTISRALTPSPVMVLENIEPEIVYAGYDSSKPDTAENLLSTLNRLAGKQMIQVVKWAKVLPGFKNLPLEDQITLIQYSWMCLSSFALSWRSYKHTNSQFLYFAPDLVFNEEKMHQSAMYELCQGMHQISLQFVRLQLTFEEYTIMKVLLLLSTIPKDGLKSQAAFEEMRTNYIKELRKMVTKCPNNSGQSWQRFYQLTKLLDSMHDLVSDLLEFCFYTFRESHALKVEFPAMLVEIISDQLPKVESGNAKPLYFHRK
Kind of test: Mineralocorticoid Receptor Binding Assay ([3H]-aldosterone). As to conditions: [3H]-aldosterone binding, human MR expressed in Sf9 cells; read-out: MR Ki. The method, boiled down:
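Lysate supernatant of Sf9 cells expressing full-length human MR (20-25 μg protein) was incubated with 0.5 nM [3H]-aldosterone and test compound in molybdate/Tris/phosphate/glycerol buffer, pH 7.5, ~16 h at 4 °C. Bound ligand was filtered and counted by scintillation; IC50 is the concentration halving [3H]-aldosterone binding.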

The target in test [2] is T2, glucocorticoid receptor (Homo sapiens, UniProt P04150).
T2 construct: containing 50-200 ug of A549 cell extract and 1.86 nM [^3H]-dexamethasone; host or cells: A549 human lung epithelial cells (sonicated cell extract)
T2 sequence (P04150 1-777): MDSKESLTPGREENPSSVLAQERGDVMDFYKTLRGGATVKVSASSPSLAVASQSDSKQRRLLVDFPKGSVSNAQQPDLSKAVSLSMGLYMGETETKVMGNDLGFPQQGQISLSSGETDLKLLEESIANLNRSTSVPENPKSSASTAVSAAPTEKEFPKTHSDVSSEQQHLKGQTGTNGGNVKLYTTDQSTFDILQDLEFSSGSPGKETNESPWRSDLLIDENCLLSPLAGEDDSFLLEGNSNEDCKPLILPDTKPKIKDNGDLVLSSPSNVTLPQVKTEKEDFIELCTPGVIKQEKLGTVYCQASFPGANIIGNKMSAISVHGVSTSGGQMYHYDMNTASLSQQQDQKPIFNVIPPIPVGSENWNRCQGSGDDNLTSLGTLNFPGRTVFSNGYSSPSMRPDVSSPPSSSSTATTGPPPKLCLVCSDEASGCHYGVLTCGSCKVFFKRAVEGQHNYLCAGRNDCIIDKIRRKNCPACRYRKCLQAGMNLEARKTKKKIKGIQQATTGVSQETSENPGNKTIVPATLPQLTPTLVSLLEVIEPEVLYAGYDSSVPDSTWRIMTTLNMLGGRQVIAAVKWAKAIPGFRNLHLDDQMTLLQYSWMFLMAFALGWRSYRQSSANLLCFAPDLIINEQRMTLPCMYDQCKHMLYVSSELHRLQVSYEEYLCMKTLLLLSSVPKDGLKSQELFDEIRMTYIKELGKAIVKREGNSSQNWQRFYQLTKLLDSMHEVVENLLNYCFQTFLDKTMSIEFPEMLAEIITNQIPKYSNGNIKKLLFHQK
The test is described as follows: Glucocorticoid Receptor Binding Assay ([3H]-dexamethasone, A549 cell extract). As to conditions: [3H]-dexamethasone binding, read-out: GR Ki. The essentials: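 A549 cell extract (50–200 ug) incubated with 1.86 nM [3H]-dexamethasone and test compound for 16 h at 4 °C in Tris-HCl pH 7.2 buffer with glycerol and molybdate. Unbound radioligand removed by dextran-coated charcoal, then supernatant bound counts measured by scintillation.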

`Fc1ccc2c(c1)CCc1ncccc1/C2=C/c1ccccc1C(F)F` [Example 539]: the inhibitory constant (Ki) in test [1] and in test [2] was less than 500 nM throughout.

Consider `Fc1ccc2c(c1)CCc1ncccc1/C2=C\c1ccccc1C(F)F` [Example 540], for which the Ki in test [1] and in test [2] was less than 500 nM throughout.

Consider `Fc1ccc2c(c1)CCc1ncccc1/C2=C/c1cccc(C(F)F)c1` [Example 541], for which the Ki in test [1] was less than 500 nM; in test [2], less than 1000 nM.

Regarding `Fc1ccc2c(c1)CCc1ncccc1/C2=C\c1cccc(C(F)F)c1` [Example 542], the Ki was less than 500 nM in test [1] and less than 10000 nM in test [2].

Consider `Fc1ccc2c(c1)CCc1ncccc1/C2=C/c1ccc(C(F)F)cc1` [Example 543], for which the inhibitory constant (Ki) in test [1] was less than 500 nM; in test [2] it was less than 10000 nM.

With `Fc1ccc2c(c1)CCc1ncccc1/C2=C\c1ccc(C(F)F)cc1` [Example 544], the Ki was less than 500 nM in test [1] and less than 1000 nM in test [2].

Turning to `CC(=O)Nc1cccc(/C=C2\c3ccc(F)cc3CCc3ncccc32)c1` [Example 545], the results for the Ki in test [1] and in test [2] were less than 500 nM and less than 10000 nM, respectively.

As to `CS(=O)(=O)Nc1cccc(/C=C2/c3ccc(F)cc3CCc3nc(C#N)ccc32)c1` [Example 546], the inhibition constant (Ki) in test [1] and in test [2] was less than 500 nM throughout.

With `CS(=O)(=O)Nc1cccc(/C=C2\c3ccc(F)cc3CCc3nc(C#N)ccc32)c1` [Example 547], the inhibitory constant (Ki) in test [1] and in test [2] was less than 500 nM in each case.

Take `CS(=O)(=O)Nc1cc(F)cc(/C=C2\c3ccc(Cl)cc3CCc3cccnc32)c1` [Example 548]: the results for the inhibition constant Ki in test [1] and in test [2] were less than 500 nM and less than 10000 nM, respectively.

Consider `O=c1[nH]c2ccc(/C=C3/c4ccc(F)cc4CCc4nc(Cl)sc43)cc2[nH]1` [Example 549], for which the figures for the Ki in test [1] and in test [2] were less than 500 nM and less than 10000 nM, respectively.

For `CS(=O)(=O)Nc1cccc(/C=C2\c3ccc(F)cc3CCc3nc(Cl)sc32)c1` [Example 550], the inhibitory constant (Ki) in test [1] and in test [2] was less than 500 nM throughout.

On to `CS(=O)(=O)Nc1cccc(/C=C2/c3ccc(F)cc3CCc3nc(Cl)sc32)c1` [Example 551], for which the inhibition constant Ki in test [1] and in test [2] was less than 500 nM throughout.

Take `CS(=O)(=O)Nc1cccc(/C=C2/c3ccc(Cl)cc3CCc3ncsc32)c1` [Example 552]: the Ki in test [1] and in test [2] was less than 500 nM in each case.

Take `CS(=O)(=O)Nc1cccc(/C=C2\c3ccc(Cl)cc3CCc3ncsc32)c1` [Example 553]: the inhibition constant (Ki) in test [1] and in test [2] was less than 500 nM each time.

Consider `CS(=O)(=O)Nc1cccc(/C=C2\c3scnc3CCc3cccc(Cl)c32)c1` [Example 554], for which the Ki was less than 500 nM in test [1] and less than 1000 nM in test [2].

As for `CS(=O)(=O)Nc1cccc(/C=C2/c3ccccc3CCc3ncsc32)c1` [Example 555], the inhibition constant Ki in test [1] and in test [2] was less than 500 nM each time.

Turning to `CS(=O)(=O)Nc1cccc(/C=C2\c3ccccc3CCc3ncsc32)c1` [Example 556], the Ki in test [1] and in test [2] was less than 500 nM throughout.

For the compound `CS(=O)(=O)Nc1cccc(/C=C2/c3cccnc3CCc3cccc(F)c32)c1` [Example 557], the Ki in test [1] and in test [2] was less than 500 nM in each case.

As to `CS(=O)(=O)Nc1cccc(/C=C2\c3ccccc3CCc3nc(N)sc32)c1` [Example 559], the inhibition constant Ki in test [1] and in test [2] was less than 500 nM each time.

`Nc1nc2c(s1)C(=Cc1cccc(O)c1)c1ccccc1CC2` [Example 560]: the Ki in test [1] is less than 500 nM; in test [2], less than 1000 nM.

In the case of `O=c1[nH]c2ccc(/C=C3\c4ccccc4CCc4ncsc43)cc2[nH]1` [Example 561], the results for the inhibition constant Ki in test [1] and in test [2] were less than 500 nM and less than 1000 nM, respectively.

As for `O=c1[nH]c2cc(/C=C3\c4ccccc4CCc4ncsc43)ccc2o1` [Example 562], the inhibition constant (Ki) in test [1] and in test [2] was less than 500 nM each time.

`CS(=O)(=O)Nc1cccc(/C=C2/c3ccc(F)cc3CCc3ncsc32)c1` [Example 563]: the inhibitory constant (Ki) in test [1] and in test [2] was less than 500 nM in each case.

Consider `CS(=O)(=O)Nc1cccc(/C=C2\c3ccc(F)cc3CCc3ncsc32)c1` [Example 564], for which the Ki in test [1] and in test [2] was less than 500 nM each time.

As to `O=c1[nH]c2ccc(/C=C3\c4ccc(F)cc4CCc4ncsc43)cc2[nH]1` [Example 565], the results for the Ki in test [1] and in test [2] were less than 500 nM and less than 10000 nM, respectively.

With `O=c1[nH]c2ccc(/C=C3/c4ccc(F)cc4CCc4ncsc43)cc2[nH]1` [Example 566], the Ki was less than 500 nM in test [1] and less than 10000 nM in test [2].

For the compound `CS(=O)(=O)Nc1cccc(/C=C2\c3cccnc3CCc3c(Cl)cccc32)c1` [Example 567], the inhibitory constant (Ki) in test [1] was less than 500 nM; in test [2], less than 10000 nM.

For the compound `CS(=O)(=O)Nc1cccc(/C=C2/c3ccc(Cl)cc3CCc3ncccc32)c1` [Example 569], the inhibition constant Ki in test [1] was less than 500 nM; in test [2], less than 10000 nM.

With `CS(=O)(=O)Nc1cccc(/C=C2\c3ccc(Cl)cc3CCc3ncccc32)c1` [Example 570], the inhibition constant Ki in test [1] was less than 500 nM; in test [2] it was less than 1000 nM.

On to `CS(=O)(=O)Nc1cccc(/C=C2/c3cccnc3CCc3c(Cl)cccc32)c1` [Example 573], for which the inhibition constant (Ki) in test [1] and in test [2] was less than 500 nM in each case.

As to `CS(=O)(=O)Nc1cccc(/C=C2\c3cccnc3CCc3c(F)cccc32)c1` [Example 574], the Ki in test [1] and in test [2] was less than 500 nM throughout.

Turning to `Fc1cccc2c1CCc1ncccc1C2=Cc1cccc(Cl)c1` [Example 575], the inhibition constant Ki in test [1] and in test [2] was less than 500 nM each time.

Turning to `CS(=O)(=O)Nc1cccc(/C=C2/c3cccnc3CCc3c(F)cccc32)c1` [Example 576], the inhibition constant Ki in test [1] is less than 500 nM; in test [2], less than 10000 nM.

Regarding `Fc1ccc2c(c1)CCc1ncccc1/C2=C/c1ccccc1F` [Example 578], the Ki was less than 500 nM in test [1] and less than 10000 nM in test [2].

As to `Fc1cccc(/C=C2\c3ccc(F)cc3CCc3ncccc32)c1` [Example 579], the Ki in test [1] and in test [2] was less than 500 nM in each case.

Regarding `Fc1ccc(/C=C2\c3ccc(F)cc3CCc3ncccc32)cc1` [Example 580], the Ki in test [1] is less than 500 nM; in test [2], less than 10000 nM.

`Fc1ccc(/C=C2/c3ccc(F)cc3CCc3ncccc32)cc1` [Example 581]: the Ki is less than 500 nM in test [1] and less than 10000 nM in test [2].

For `Fc1ccc2c(c1)CCc1ncccc1/C2=C\c1ccccc1F` [Example 582], the inhibition constant Ki in test [1] is less than 500 nM; in test [2], less than 10000 nM.

As to `Fc1cccc(/C=C2/c3ccc(F)cc3CCc3ncccc32)c1` [Example 583], the Ki was less than 500 nM in test [1] and less than 10000 nM in test [2].

As for `COC(=O)c1ccc(/C=C2\c3ccc(F)cc3CCc3ncccc32)cc1` [Example 584], the values for the Ki in test [1] and in test [2] were less than 1000 nM and less than 10000 nM, respectively.

Source of the values: patent US20060063759A1, “Tricyclic steroid hormone nuclear receptor modulators” (priority 2002, published 2006).
